Experimental data published in US20190374505A1, “METHODS AND COMPOSITIONS FOR THE TREATMENT OF NON-ALCOHOLIC STEATOHEPATITIS” (Vivus, Inc., priority 2016, published 2019).
Values joined by “and” are separate entries in the source; they are usually repeats but may differ in a detail not shown here. Identical values can stand only once.

Tests used:
Assay type in all cases: in vivo, mouse
STAM model mice (NASH) [1] = experiment: STAM model mice: viability, body weight, food consumption, liver weight
Excerpt: (§1) Having observed the improvements in markers that correlate with liver disease in patients treated with PHEN/TPM, animal studies in the STAM model for NAFLD/NASH were preformed to look more specifically at liver morphology and function following treatment with PHEN/TPM. The STAM model was selected because it allows a specific examination of the effects of drug treatment, in this example PHEN/TPM, on non-alcoholic steatohepatitis. The STAM model is a non-genetic animal model of human NASH with features of diabetic background, increased. NAFLD activity score (NAS), perivenular and pericellular fibrosis in Zone 3, and a high incidence of hepatocellular carcinoma (Fujii M. et al., Med. Mel. Morphol., 2013; 46: 141). The model is induced by a combination of chemical and dietary interventions in the mice. In this example, NASH was induced in 30 male mice by a single subcutaneous injection of 200 μg streptozotocin (STZ, Sigma-Aldrich, USA) solution 2 days after birth and feeding with a high fat diet (HFD, 57 kcal % fat, cat#: HFD32, CLEA Japan, Japan) after 4 weeks of age. The mice were treated with either vehicle, PHEN/TPM or Telmisartan.
(§2) Phentermine (PHEN) and Topiramate (TPM) were weighed and dissolved in distilled water and 0.5% methylcellulose, respectively. Telmisartan (MICARDIS®) was purchased from Boehringer Ingelheim GmbH (Germany) and suspended in milli-Q water. Vehicle, PHEN and TPM were orally administered in a volume of 5 mL/kg. Telmisartan was orally administered in a volume of 10 mL/kg. PHEN was administered at a dose of 15 mg/kg once daily. TPM was administered at a dose of 100 mg/kg once daily. Telmisartan was administered at a dose of 5 mg/kg once daily.
C57BL16 mice (15-day-pregnant female) were obtained from Japan SLC (Japan) and were housed in accordance with the Japanese Pharmacological Society Guidelines for Animal Use. The animals were maintained in a SPF facility under controlled conditions of temperature (23±2° C.), humidity (45±10%), lighting (12-hour artificial light and dark cycles; light from 8:00 to 20:00) and air exchange. A high pressure was maintained in the experimental room to prevent contamination of the facility. The animals were housed in TPX cages (CLEA Japan) with a maximum of 4 mice per cage. Sterilized Paper-Clean (Japan SLC) was used for bedding and replaced once a week.
Sterilized solid HFD was provided ad libitum, being placed in a metal lid on the top of the cage. Pure water was provided ad libitum from a water bottle equipped with a rubber stopper and a sipper tube. Water bottles were replaced once a week, cleaned and sterilized in an autoclave and reused. Mice were identified by numbers engraved on earrings. Each cage was labeled with a specific identification code.
(§3) The three treatment groups were as follows: Group 1: Vehicle: 10 NASH mice were orally administered vehicle [distilled water and 0.5% methylcellulose in a volume of 5 mL./kg, respectively] once daily from 5 to 11 weeks of age. Group 2: PHEN/WM. 10 NASH mice were orally administered distilled water supplemented with PHEN at a dose of 15 mg/kg, and 0.5% methylcellulose supplemented with TPM at a dose of 100 mg/kg once daily from 5 to 11 weeks of age. Group 3: Telmisartan. […]
The viability, clinical signs and behavior were monitored daily. […]
The body weight of each mouse was recorded daily and food consumption was recorded 3 times weekly during the treatment period. […]

STAM model mice (NASH) [2] = experiment: STAM model mice: blood biochemistry and liver triglyceride content; details: day of sacrifice, mean ± SD
Excerpt: as §1
Phentermine (PHEN) and Topiramate (TPM) were weighed and dissolved in distilled water and 0.5% methylcellulose, respectively. Telmisartan (MICARDIS®) was purchased from Boehringer Ingelheim GmbH (Germany) and suspended in milli-Q water. Vehicle, PHEN and TPM were orally administered in a volume of 5 mL/kg. Telmisartan was orally administered in a volume of 10 mL/kg. PHEN was administered at a dose of 15 mg/kg once daily. […]
Measurement of blood biochemistry. Non-fasting blood glucose was measured in whole blood using LIFE CHECK (EIDrA, Japan). […] The plasma ALT (alanine aminotransferase) and AST (aspartate aminotransferase) levels were measured by FUJI DRI CHEM 7000 (FujiFilm, Japan) Measurement of liver triglyceride content Liver total lipid-extracts were obtained by Folch's method (Folch J. el al., J. Bioi. Chern. 1957; 226: 497). […] Liver triglyceride levels were measured by Triglyceride E-test (Wako Pure Chemical Industries, Japan). […]

STAM model mice (NASH) [3] = experiment: STAM model mice: liver histopathology (HE/NAS, Sirius red, Oil red, F4/80)
Excerpt: as §1, §2
Histopathology analysis. For HE staining, sections were cut from paraffin blocks of liver tissue prefixed in Bouin's solution and stained with Lillie-Mayers Hematoxylin (Muto Pure Chemicals, japan) and eosin solution (Wako Pure Chemical industries). NAS was calculated according to the criteria of Kleiner (Kleiner D E. et al., Hepatology, 2005; 41: 1313). To visualize collagen deposition, Bouin's fixed liver sections were stained using picro-Sirius red solution (Waldeck, Gelman)). To visualize macro- and microvesicular fat, sections were cut from frozen liver tissues embedded in Tissue-Tek O.C.T. compound (Sakura Finetek Japan, Japan), and stained with Oil Red 0 (SigmaAldrich). For immunohistochemistry, sections were cut from frozen liver tissues embedded in Tissue-Tek O.C.T. compound and fixed in acetone. Endogenous peroxidase activity was blocked using 0.03% H2O2 for 5 minutes, followed by incubation with Block Ace (Dainippon Sumitomo Pharma, Japan) for 10 minutes. The sections were incubated with a 200-fold dilution of anti-F4/80 antibody (BMA Biomedicals, Switzerland) 1 hour at room temperature. After incubation with secondary antibody (HRP-Goat anti-rat antibody, Invitrogen, USA), enzyme-substrate reactions were performed using 3, 3′-diaminobenzidine/H202 solution (Nichirei, Japan). For quantitative analyses of fibrosis, inflammation and fat deposition areas, bright field images of Sirius red-stained, F4/80-immunostained and oil red-stained sections were captured around the central vein using a digital camera (DFC280; Leica, Germany) at 200-fold magnification, and the positive areas in 5 fields/section were measured using ImageJ software (National Institute of Health, USA).
as §3

[4] = test system: liver mRNA of TNF-α, TIMP-1, Alpha-SMA, MMP-9, collagen type 1, MCP-1; experiment: STAM model mice: liver gene expression analysis (real-time PCR, normalized to 36B4); details: vehicle average = 1.0, mean ± SD
Excerpt: as §1, §2
Total RNA was extracted from liver samples using RNAiso (Takara Bio, Japan) and SV total RNA isolation kit (Promega, USA) according to the manufacturer's instructions. One/1 g of RNA was reverse-transcribed using a reaction mixture containing 4.4 mM MgCb (F. Hoffmann-La Roche, Switzerland), 40 U RNase inhibitor (Toyobo, Japan), 0.5 mM dNTP (Promega), 6.28 µM random hexamer (Promega), 5× first strand buffer (Promega), 10 mM dithiothreitol (Invitrogen, USA) and 200 U MMLV-RT (Invitrogen) in a final volume of 20 IIL. The reaction was carried out for 1 hour at 37° C., followed by 5 minutes at 99° C. Real-time PCR was performed using real-time PCR DICE and SYBR premix Tag (Takara Bio). To calculate the relative mRNA expression level, the expression of each gene was normalized to that of reference gene 36B4 (gene symbol: RplpO). To express data as fold-change relative to the Vehicle-control group, the data were standardized so that average values of the Vehicle group become 1.0.
The three treatment groups were as follows: Group 1: Vehicle: 10 NASH mice were orally administered vehicle [distilled water and 0.5% methylcellulose in a volume of 5 mL./kg, respectively] once daily from 5 to 11 weeks of age. Group 2: PHEN/WM. 10 NASH mice were orally administered distilled water supplemented with PHEN at a dose of 15 mg/kg, and 0.5% methylcellulose supplemented with TPM at a dose of 100 mg/kg once daily from 5 to 11 weeks of age. Group 3: Telmisartan. 10 NASH mice were orally administered pure water supplemented with Telmisartan at a dose of 5 mg/kg once daily from 5 to 11 weeks of age.
The values in Table 7 were calculated by dividing Target by 36B4 for each animal. An average was calculated in the vehicle group. The initial calculations of Target/36B4 was divided by the vehicle average so the vehicle average becomes 1.0. This second Target/36B4 represents a fold-change of Target gene relative to the vehicle average.

[5] = day of sacrifice, mean ± SD, PHEN 15 + TPM 100 mg/kg (n=6), Telmisartan 5 mg/kg (n=8)

## CCCc1nc2c(C)cc(-c3nc4ccccc4n3C)cc2n1Cc1ccc(-c2ccccc2C(=O)O)cc1 [Telmisartan]
STAM model mice (NASH) [1]; day of sacrifice
  Mean body weight reduced compared to the Vehicle group: 11.4%
STAM model mice (NASH) [1]; day of sacrifice, mean ± SD
  Liver-to-body weight ratio: 6.2 ± 1.1%
STAM model mice (NASH) [1]; [5]
  Body weight: 18.7 g and 18.7 ± 1.7 g
  Liver weight: 1156 ± 210 mg
STAM model mice (NASH) [1]; treatment period 5 to 11 weeks of age, oral once daily, PHEN 15 mg/kg + TPM 100 mg/kg, Telmisartan 5 mg/kg
  Mice found dead before reaching week 11: Two out of 10
STAM model mice (NASH) [2]
  Plasma ALT: 39 U/L and 39 ± 34 U/L
  Plasma AST: 229 U/L and 229 ± 176 U/L
STAM model mice (NASH) [2]; non-fasting
  Whole blood glucose: 768 mg/dL and 768 ± 199 mg/dL
STAM model mice (NASH) [3]; mean ± SD
  Fibrosis area (Sirius-red): 0.81% and 0.81 ± 0.39%
  Inflammation area (F4/80): 1.48 ± 0.76%
STAM model mice (NASH) [3]; score 0 = <5%
  Number of mice with Steatosis score 0: 2
STAM model mice (NASH) [3]; score 0 = No foci
  Number of mice with Lobular Inflammation score 0: 2
STAM model mice (NASH) [3]; score 1 = 5-33%
  Number of mice with Steatosis score 1: 6
STAM model mice (NASH) [3]; score 1 = <2 foci/200x
  Number of mice with Lobular Inflammation score 1: 2
STAM model mice (NASH) [3]; score 1 = Few balloon cells
  Number of mice with Hepatocyte Ballooning score 1: 4
STAM model mice (NASH) [3]; score 2 = 2-4 foci/200x
  Number of mice with Lobular Inflammation score 2: 4
STAM model mice (NASH) [3]; score 2 = Many cells/prominent ballooning
  Number of mice with Hepatocyte Ballooning score 2: 4
[4]
  Alpha-SMA/36B4 mRNA expression, fold change relative to Vehicle group: 0.54 and 0.54 ± 0.40
  Collagen Type 1/36B4 mRNA expression, fold change relative to Vehicle group: 0.80 and 0.80 ± 0.11
  MCP-1/36B4 mRNA expression, fold change relative to Vehicle group: 0.44 and 0.44 ± 0.23
  MMP-9/36B4 mRNA expression, fold change relative to Vehicle group: 1.21 and 1.21 ± 0.36
  TIMP-1/36B4 mRNA expression, fold change relative to Vehicle group: 0.66 and 0.66 ± 0.46
  TNF-α/36B4 mRNA expression, fold change relative to Vehicle group: 0.75 and 0.75 ± 0.17
